Tests used:
Assay type in all cases: cell-based
[1] = test system: amyloid precursor protein (APP) proteolysis; experiment: Repressor Release Assay (RRA); parameters: key to RRA data (footnote symbols): **: Inactive due to toxicity; however, this compound, at 3-4 μM, reduces Aβ levels by 50% in CHO cells transfected with human APP695 as measured by ELISA without exhibiting toxicity.; ***: Inactive; however, this compound, at 1-4 μM, reduces Aβ levels by 50% in CHO cells transfected with human APP695 as measured by ELISA without exhibiting toxicity; conditions: transfected CHO-K1 cells; for fold induction at 20 µg/mL: Cricetulus griseus, CHO-K1, all compounds tested at 20 μg/mL, luciferase activity over diluent control, read-out: RRA data (Fold increase of APPI)
Description: The beta amyloid inhibitory activity of many of the compounds of the present invention has been determined using the Repressor Release Assay (RRA). See, Table 3 below. A compound is considered active in RRA if it leads to at least a 1.5 fold increase in luciferase activity at 20 μg/mL and is non-toxic.
The compound is considered active in RRA if it leads to at least a 1.5 fold increase in APPI as measured by an increase in luciferase activity at 20 μg/mL and is non-toxic. Shuey, D. J., Sheiffele, P., Jones, D., Cockett, M. I., and Quinet, E. M. (1999) Repressor release: a useful tool for monitoring amyloid precursor protein (APP) proteolysis in mammalian cells. Society for Neuroscience Abstracts, Vol. 25, 29th Annual Meeting of Society for Neuroscience, Miami Beach, Fla., Oct. 23-28, 1999.
CHO—K1 cells are cultured in whole DMEM media (DMEM—High Glucose with 10% fetal bovine serum, 1% Non-essential Amino Acids, and 1% Penicillin-Streptomycin) at 37° C. with 5% CO2. Two million cells are plated into 10-cm dishes 24 hrs prior to transfection.
Transient transfections are completed as recommended by Gibco BRL using their Lipofectamine Plus system. First, 6 μg of pRSVO-luc and 6 μg of APP-lacI construct DNA are added to 460 μL Opti-Mem transfection media and incubated with 30 μL Plus reagent for 15 minutes. Then, a lipid mixture of 40 μL Lipofectamine reagent and 460 μL Opti-Mem transfection media is incubated with the DNA-Plus reagent mixture for 15 minutes. During the DNA-lipid incubation, the CHO—K1 cells are washed once and covered in 5.0 mL DMEM media without Penicillin-Streptomycin. The DNA-lipid preparation is then layered onto these cells and incubated at 37° C. overnight.
One and one half million transfected cells per well (100 μL total volume) are plated into sterile, opaque Packard 96-well Cultur-Plates in clear DMEM whole media (DMEM—without phenol red) and incubated at 37° C. with 5% CO2 for 3-5 hours.
Compounds are diluted using two different protocols; one protocol is used for compounds supplied neat (weighed powder in vial) and the other protocol is used for compounds supplied in solution (20 mM in DMSO in 96-well plates). For both protocols, 25 mM Hepes and 25 mM Hepes/1% DMSO are prepared fresh to be used as diluent. The Hepes/DMSO is used as the diluent control on all experimental plates.
The following Table 1 depicts the steps for compound dilution (the last step is the addition of compound to cells/media in tissue culture plate):
Because some compounds arrive in 96-well format at 20 mM, the following Table 2 represents the protocol for their dilution (an average molecular weight of these compounds was used to calculate these dilutions and as above, the last step is the addition of compound to cells/media in tissue culture plate):
Once compounds are diluted, they are applied in duplicate on cells in tissue culture plates (prepared above). Cells are incubated with compound at 37° C. with 5% CO2 for an additional 36-48 hours.
Luciferase assays (LucLite reagent, Packard) are performed and are read on a Packard TopCount instrument. Media is removed from each 96-well plate and replaced with 100 μL PBS per well (with Mg^2+ and Ca^2+). An equal volume (100 μL) of the LucLite lysis/substrate buffer is added to each well and the plates are sealed and mixed in the dark on a rotary shaker for 15-30 minutes at room temperature. Luciferase readings are then taken on the TopCount instrument. Measurements are expressed as relative light units (RLU) and are calculated and analyzed in MS Excel as follows:
Fold Increase: amount of luciferase activity (measured in relative light units) over diluent control.
SEM: standard error of the mean for fold increase.
Activity: A compound is considered active if it results in at least a 1.5 fold increase in luciferase activity at 20 μg/mL.
Toxicity: determined by loss of signal (<0.75 fold increase).

beta amyloid 40 = experiment: Aβ40/42 ELISA Assay (Aβ40); conditions: Cricetulus griseus; CHO cells carrying the APP-REP-NL plasmid, 22 hours, sandwich ELISA
Description: (§1) Compounds are diluted from DMSO stocks to 2 μM and below in a cell culture medium. Compounds are then applied to CHO cells carrying the APP-REP-NL plasmid [Sudhir et. al, J. Biolog. Chem. 267:25602-25608 (1992)] for a period of 22 hours. After the conditioning period, medium is collected, diluted in assay buffer containing protein, and samples, controls, and synthetic peptide standards are incubated on a prepared ELISA plate. Using a sandwich ELISA with antibodies specifically directed against the carboxyl terminus of beta amyloid 40 or 42 (analogous to the method reported by Haugabook et al., J. Neurosci. Methods 108:171-179 (2001) but using goat anti-mouse IgG1 (source: Southern Biotech) as the anchor, 6E10 as the capture antibody (Source: SENETEK), rabbit antiAβ40 and antiAβ42 (source: QCB) and APL-donkey anti-rabbit IgG (H+L, source: Southern Biotech) as the detection antibody), the effect of the compound treatment on the cellular production of extracellular beta amyloid is quantified. Cells treated with compound are subsequently incubated in cell culture medium containing MTS-formazan. After a short incubation period, MTS/medium containing plates are read in a spectrophotometer to determine the extent to which compound toxicity affected the cell's metabolism and ability to synthesize beta amyloid.
(§2) A. Test Samples: compound samples are supplied as 20 mM stock solutions in a 100% DMSO solution.
(§3) B. APP-REP-NL cells: Qualified cell lines are carried from week to week using 1:100 dilutions and are cultured in DMEM supplemented with 1× antibiotic/antimycotic, 200 ug/ml of G418 antibiotic, and 10% certified fetal calf serum. Cells are also banked in liquid nitrogen. Periodically, beta amyloid production is assessed, and cells are either kept in culture or replaced with progenitors at full expression.
(§4) C. Antibodies: From certified lots that have already been qualified in this assay. Antibodies are stored in small frozen aliquots at −80° C. that are thawed and used.
(§5) A compound is considered active if it has an EC50 for Aβ40 reduction of <100 μM and no toxicity at doses in the vicinity of the EC50.

beta amyloid 42 = experiment: Aβ40/42 ELISA Assay (Aβ42); conditions: CHO cells carrying the APP-REP-NL plasmid, 22 hours, sandwich ELISA; for EC50: Cricetulus griseus
Description: as §1, §2, §3, §4, §5

| SMILES | fold induction at 20 µg/mL [1] | EC50 (beta amyloid 40) [nM] | EC50 (beta amyloid 42) [nM] | Effect on Aβ42 production (beta amyloid 42) | RRA data (footnote symbols) ([1]; tested at 20 μg/mL) |
| --- | --- | --- | --- | --- | --- |
| CC(C)C(NS(=O)(=O)c1ccc(Cl)s1)c1ccnn1-c1ccc(F)cc1 (racemic) [Example 15, 5-Chloro-N-{1-[1-(4-fluorophenyl)-1H-pyrazol-5-yl]-2-methylpropyl}thiophene-2-sulfonamide] | 2.8 | 4000 | 5100 | – | – |
| CC(C)[C@@H](NS(=O)(=O)c1ccc(Cl)s1)c1ccnn1-c1ccc(F)cc1 (stereo in doubt) [Example 41, 5-Chloro-N-{(1R)-1-[1-(4-fluorophenyl)-1H-pyrazol-5-yl]-2-methylpropyl}thiophene-2-sulfonamide] | – | 21900 | – | increase | – |
| CC(C)[C@H](NS(=O)(=O)c1ccc(Cl)s1)c1ccnn1-c1ccc(F)cc1 (stereo in doubt) [Example 42, 5-Chloro-N-{(1S)-1-[1-(4-fluorophenyl)-1H-pyrazol-5-yl]-2-methylpropyl}thiophene-2-sulfonamide] | – | 1000 | 1000 | – | – |
| CCC(CC)C(NS(=O)(=O)c1ccc(Cl)s1)c1ccnn1Cc1ccc(OC)cc1 (centres unmarked) [Example 1, 5-Chloro-N-{2-ethyl-1-[1-(4-methoxybenzyl)-1H-pyrazol-5-yl]butyl}thiophene-2-sulfonamide] | 7.8 | 1000 | 1000 | – | – |
| CCC(CC)C(NS(=O)(=O)c1ccc(Cl)cc1)c1ccnn1Cc1ccc(OC)cc1 (centres unmarked) [Example 2, 4-Chloro-N-{2-ethyl-1-[1-(4-methoxybenzyl)-1H-pyrazol-5-yl]butyl}benzenesulfonamide] | 11.3 | 6400 | 13000 | – | – |
| CCC(CC)C(NS(=O)(=O)c1ccc(Br)cc1)c1ccnn1Cc1ccc(OC)cc1 (centres unmarked) [Example 3, 4-Bromo-N-{2-ethyl-1-[1-(4-methoxybenzyl)-1H-pyrazol-5-yl]butyl}benzenesulfonamide] | 5.9 | 6800 | 10000 | – | – |
| COc1ccc(Cn2nccc2C(C)NS(=O)(=O)c2ccc(Cl)s2)cc1 (centres unmarked) [Example 4, 5-Chloro-N-{1-[1-(4-methoxybenzyl)-1H-pyrazol-5-yl]ethyl}thiophene-2-sulfonamide] | 2.3 | 1800 | 1300 | – | – |
| COc1ccc(Cn2nccc2C(NS(=O)(=O)c2ccc(Cl)s2)C(C)C)cc1 (centres unmarked) [Example 5, 5-Chloro-N-{1-[1-(4-methoxybenzyl)-1H-pyrazol-5-yl]-2-methylpropyl}thiophene-2-sulfonamide] | 3.5 | 1100 | 900 | – | – |
| CCCC(NS(=O)(=O)c1ccc(Cl)s1)c1ccnn1Cc1ccc(OC)cc1 (centres unmarked) [Example 6, 5-Chloro-N-{1-[1-(4-methoxybenzyl)-1H-pyrazol-5-yl]butyl}thiophene-2-sulfonamide] | 4.7 | 1500 | 1400 | – | – |
| CCCCn1nccc1C(NS(=O)(=O)c1ccc(Cl)s1)C(CC)CC (centres unmarked) [Example 7, N-[1-(1-Butyl-1H-pyrazol-5-yl)-2-ethylbutyl]-5-chlorothiophene-2-sulfonamide] | 5.4 | 2400 | 2700 | – | – |
| CCC(CC)C(NS(=O)(=O)c1ccc(Cl)s1)c1ccnn1-c1ccc(OC)cc1 (centres unmarked) [Example 10, 5-Chloro-N-{2-ethyl-1-[1-(4-methoxyphenyl)-1H-pyrazol-5-yl]butyl}thiophene-2-sulfonamide] | 1.7 | 4000 | 10100 | – | – |
| CCC(CC)C(NS(=O)(=O)c1ccc(Cl)s1)c1ccnn1-c1ccc(O)cc1 (centres unmarked) [Example 11, 5-Chloro-N-{2-ethyl-1-[1-(4-hydroxyphenyl)-1H-pyrazol-5-yl]butyl}thiophene-2-sulfonamide] | 3 | 1000 | 2700 | – | – |
| CC(C)C(NS(=O)(=O)c1ccc(Cl)s1)c1ccnn1-c1ccccc1 (centres unmarked) [Example 12, 5-Chloro-N-[2-methyl-1-(1-phenyl-1H-pyrazol-5-yl)propyl]thiophene-2-sulfonamide] | – | 1400 | 3300 | – | *** |
| CC(NS(=O)(=O)c1ccc(Cl)s1)c1ccnn1-c1ccccc1 (centres unmarked) [Example 13, 5-Chloro-N-[1-(1-phenyl-1H-pyrazol-5-yl)ethyl]thiophene-2-sulfonamide] | 6.4 | 4800 | 5100 | – | – |
| Cc1ccc(-n2nccc2C(NS(=O)(=O)c2ccc(Cl)s2)C(C)C)cc1 (centres unmarked) [Example 14, 5-Chloro-N-{2-methyl-1-[1-(4-methylphenyl)-1H-pyrazol-5-yl]propyl}thiophene-2-sulfonamide] | 17.7 | 1200 | 1200 | – | – |
| CCC(CC)C(NS(=O)(=O)c1ccc(Cl)s1)c1ccnn1-c1ccccc1 (centres unmarked) [Example 17, 5-Chloro-N-[2-ethyl-1-(1-phenyl-1H-pyrazol-5-yl)butyl]thiophene-2-sulfonamide] | – | 4200 | 10000 | – | – |
| CCC(CC)C(NS(=O)(=O)c1ccc(Cl)s1)c1ncnn1Cc1ccc(F)cc1 (centres unmarked) [Example 19, 5-Chloro-N-{2-ethyl-1-[1-(4-fluorobenzyl)-1H-1,2,4-triazol-5-yl]butyl}thiophene-2-sulfonamide] | 3.9 | – | – | – | – |
| CCC(CC)C(NS(=O)(=O)c1ccc(Cl)s1)c1nccn1Cc1ccccc1 (centres unmarked) [Example 28, N-[1-(1-Benzyl-1H-imidazol-2-yl)-2-ethylbutyl]-5-chlorothiophene-2-sulfonamide] | 1.5 | 19400 | – | – | – |
| O=S(=O)(NC(Cc1ccccc1)c1ccnn1-c1ccc(F)cc1)c1ccc(Cl)s1 (centres unmarked) [Example 35, 5-Chloro-N-{1-[1-(4-fluorophenyl)-1H-pyrazol-5-yl]-2-phenylethyl}thiophene-2-sulfonamide] | – | 12800 | 67200 | – | – |

— patent US7674813B2, “Heterocyclic sulfonamide inhibitors of beta amyloid production containing an azole” (Wyeth, priority 2004, dated 2010)
